Structures are written as SMILES. Structures can show the parent of a compound that is named as a salt.

One data set in a line: RP, Agilent ZORBAX Eclipse XDB-C18, 100 × 2.1 mm, 1.8 µm, 50 °C, 0.4 mL/min, estimated dead time 0.55 min; A: water + 0.1% formic acid, pH 3; B: methanol + 0.1% formic acid, pH 3; gradient (min/%B) 0/2 10/100 14.5/100 14.51/2 16.5/2. Conditions: stereoisomer not certain.
`O=C(O)Cc1ccccc1O` [2-Hydroxyphenylacetic acid]: the LC retention time was 3.82 min.

Consider `O=C(O)C(O)Cc1ccc(O)cc1` (stereo unspecified) [p-Hydroxyphenyllactic acid], for which the LC retention time was 2.73 min.

In the case of `CC(C)(CO)C(O)C(=O)NCCC(=O)O` (racemic) [DL-Pantothenic acid], the LC retention time was 2.42 min.

A short description of a further data set: RP, Waters ACQUITY UPLC HSS T3, 100 × 2.1 mm, 50 °C; A: water + 0.1% formic acid, pH 3; B: 30% methanol + 70% acetonitrile + 0.1% formic acid, pH 3; gradient (min/%B) 0/5 1/8 2/15 3/40 4/70 4.5/100 5/100 6.4/100 6.6/5 6.8/5 7/5. The settings on record: stereoisomer not certain.
Regarding `Cc1cccc(OS(=O)(=O)O)c1` [m-Cresol sulfate], the LC retention time worked out at 3.44 min.

In the case of `O=S(=O)(O)Oc1c[nH]c2ccccc12` [3-Indoxyl sulfate], the LC retention time was 2.67 min.

Regarding `Cn1c(=O)[nH]c(=O)c2[nH]cnc21` [3-Methylxanthine], the LC retention time worked out at 1.45 min.

As for `CC(=O)CCC(=O)O` [Levulinic acid], the LC retention time is 1.46 min.

Take `O=C(O)C1OC(Oc2ccc(O)cc2)C(O)C(O)C1O` (stereo unspecified) [Hydroquinone glucuronide]: the LC retention time stood at 0.909 min.

Take `Cc1ccc(OS(=O)(=O)O)cc1` [p-Cresol sulfate]: the LC retention time was found to be 3.38 min.

For `NCCc1ccc(OS(=O)(=O)O)c(O)c1` [Dopamine 4-O-sulfate], the LC retention time was determined as 0.606 min.

On to `O=C(O)CCc1ccc(O)cc1O` [3-(2,4-dihydroxyphenyl)propionic acid], for which the LC retention time came to 3.02 min.

As to `O=C(O)C1OC(Oc2c[nH]c3ccccc23)C(O)C(O)C1O` (stereo not drawn) [Indoxyl beta-d-glucuronide], the LC retention time is 2.94 min.

For the compound `CC(=O)Nc1c(N)[nH]c(=O)n(C)c1=O` [AAMU], the LC retention time was 0.681 min.

Take `CS(=O)CCCN=C=S` (stereo unspecified) [Iberin]: the LC retention time came out at 3.25 min.

Regarding `O=C(O)C1CCCCN1` (single isomer, unassigned; (+)) [(+)-Pipecolinic acid], the LC retention time was found to be 0.617 min.

`O=C(O)Cc1ccccc1O` [2-Hydroxyphenylacetic acid]: the LC retention time came out at 3.4 min.

Regarding `COc1ccc(-c2cc(=O)c3c(O)cc(OC4OC(C(=O)O)C(O)C(O)C4O)cc3o2)cc1O` (stereo unspecified) [Diosmetin 7-glucuronide], the LC retention time was 3.6 min.

On to `O=C(O)C(O)Cc1ccc(O)cc1` (stereo unspecified) [p-Hydroxyphenyllactic acid], for which the LC retention time was found to be 2.66 min.

For the compound `OCC1OC(Oc2c[nH]c3ccccc23)C(O)C(O)C1O` (stereo not drawn) [Indoxyl beta-d-glucoside], the LC retention time was 2.92 min.

Take `O=C(O)c1cc(=O)c2cccc(O)c2[nH]1` [Xanthurenic acid]: the LC retention time was found to be 2.57 min.

With `Cn1cnc2[nH]c(=O)[nH]c(=O)c21` [7-Methylxanthine], the LC retention time was 1.25 min.

On to `O=C(O)CCc1cc(O)cc(O)c1` [3-(3,5-Dihydroxyphenyl)propanoic acid], for which the LC retention time is 2.66 min.

With `Cn1c(=O)[nH]c(=O)c2c1[nH]c(=O)n2C` [3,7-Dimethyluric acid], the LC retention time turned out to be 1.54 min.

As for `CC(C)(CO)C(O)C(=O)NCCC(=O)O` (racemic) [DL-Pantothenic acid], the LC retention time came out at 2 min.

Consider `NCCc1ccc(O)c(O)c1` [Dopamine], for which the LC retention time was found to be 0.706 min.

In the case of `NC(=O)NCCC[C@H](N)C(=O)O` [L-Citrulline], the LC retention time is 0.483 min.

With `O=C(Cc1c[nH]c2ccccc12)OC1OC(C(=O)O)C(O)C(O)C1O` (stereo unspecified) [Indole-3-acetic acid glucuronide], the LC retention time is 3.46 min.

Take `CN(C)CC(=O)O` [N,N-Dimethylglycine]: the LC retention time was 0.49 min.

Take `O=C1OC(C(O)CO)C(O)=C1O` (stereo unspecified) [Ascorbic acid]: the LC retention time stood at 0.601 min.

`O=Cc1ccccc1O` [2-Hydroxybenzaldehyde]: the LC retention time was found to be 3.72 min.

Consider `C=CCS(=O)CC(N)C(=O)O` (stereo unspecified) [Alliin], for which the LC retention time was 0.638 min.

For the compound `O=C(O)C1CC(O)CN1` (stereo unspecified) [Hydroxyproline], the LC retention time was determined as 0.466 min.

A further data set is described as follows: RP, Waters ACQUITY UPLC BEH C18, 100 × 2.1 mm, 1.7 µm, 65 °C, 0.4 mL/min, estimated dead time 0.55 min; A: water + 0.1% formic acid, pH 3; B: 80% acetonitrile + 20% acetone + 0.1% formic acid, pH 3; gradient (min/%B) 0/0 5/100 5.5/0 6/0. The settings on record: stereoisomer not certain.
For the compound `Cc1cccc(OS(=O)(=O)O)c1` [m-Cresol sulfate], the LC retention time was 2 min.

Take `O=S(=O)(O)Oc1c[nH]c2ccccc12` [3-Indoxyl sulfate]: the LC retention time was 1.68 min.

Regarding `Cn1c(=O)[nH]c(=O)c2[nH]cnc21` [3-Methylxanthine], the LC retention time was 1.3 min.

For the compound `CC(=O)CCC(=O)O` [Levulinic acid], the LC retention time is 1.4 min.

Regarding `Cc1ccc(OS(=O)(=O)O)cc1` [p-Cresol sulfate], the LC retention time was 1.99 min.

As to `NCCc1ccc(OS(=O)(=O)O)c(O)c1` [Dopamine 4-O-sulfate], the LC retention time is 1.3 min.

In the case of `O=C(O)C1OC(Oc2c[nH]c3ccccc23)C(O)C(O)C1O` (stereo not drawn) [Indoxyl beta-d-glucuronide], the LC retention time was 1.73 min.

Another data set can be described thus: RP, Waters ACQUITY UPLC HSS T3, 100 × 2.1 mm, 1.8 µm, 30 °C, 0.4 mL/min, estimated dead time 0.55 min; A: water + 0.1% formic acid, pH 3; B: acetonitrile + 0.1% formic acid, pH 3; gradient (min/%B) 0/0 2/0 15/100 22/100 22.1/0 26/0. The settings on record: stereoisomer not certain.
`O=C(O)Cc1ccccc1O` [2-Hydroxyphenylacetic acid]: the LC retention time is 9.13 min.

For `NCCc1ccc(O)c(O)c1` [Dopamine], the LC retention time is 1.3 min.

Values taken from the RepoRT retention time repository (doi:10.1016/j.foodchem.2021.129757).
